The record followed here is patent US20250361217A1, “FATTY ACID COMPOUNDS” (University of Pittsburgh - Of the Commonwealth System of …, priority 2022, published 2025).

One experiment deals with liver gene expression. In words: RNA-Sequencing of livers with IPA pathway analysis. The class given is in vivo, mice. As for the experimental part: Bioinformatics and Biostatistics Analyses on RNA Sequencing Data Transcriptome sequencing was performed on mice samples from each group with four replicates per condition. Quality control was first performed on the raw sequencing data by tool FastQC. Then low-quality reads and adapter sequences were trimmed out by tool Trimmomatic. After pre-processing, the surviving reads were aligned into mouse reference genome mm10 by STAR aligner. Gene counts per gene per sample were quantified by function—quantMode GeneCounts supported by the STAR aligner. Gene expression normalization was performed by R package DEseq2.
Given the gene expression profile, differential expression analyses were performed based on gene counts by DEseq2 package. Five pairwise comparisons were analyzed: LFD+Veh vs LFD+11D3, HFD+Veh vs HFD+11D3, HFD+Veh vs HFD+11U3, HFD+Veh vs HFD+11U3-2M and LFD+Veh vs HFD+Veh. Differentially expressed genes (DEGs) were defined by FDR=5% and absolute fold-change equal to or greater than 1.5. For the downstream analysis, Ingenuity Pathways Analysis (IPA) was employed to perform pathway enrichment analysis on the DEGs. Significant pathways were defined by FDR=5%. Regulation directions were measured by Z-scores, where a positive Z-score indicates activation of the pathway and a negative Z-score means inhibition, while some pathways show out unknown or mix of regulation directions.

A further experiment deals with LncRNA GM15441. In words: Fluorescence RNA in-situ hybridization for GM15441. The class given is in vivo, mice. To be noted: livers of HFD-treated groups. As for the experimental part: Fluorescence RNA in-situ hybridization was performed on tissue sections using LNA ISH Optimization Kits (Qiagen, #339459) according to manufacturer's instructions. Briefly, the sectioning slides were deparaffinized and digested by proteinase K approach for 15 min at 37° C. U6, scrambled RNA, and GM15441 (LCD0173184) probes were hybridized at final concentration of 1 nM, 40 nM and 40 nM, respectively, followed by stringent washes of serial diluted SSC (Sigma, #S6639-1 L). After 30 min blocking, the slides were incubated with anti-DIG-POD (Roche, #11207733910) at 1:400 dilution for 60 min at RT according to manufacturer's instructions. TSA-plus Cyanine 3 (Akoya Bioscience, #NEL744001KT) substrate was added to the sections and incubated twice (5 min per incubation) to amplify the fluorescence signal. NucBlue Live ReadyProbes Reagent was applied to the slides at last to facilitate cell nuclei staining. Images were acquired on a fluorescent microscope (Leica, DMi8) using the Ocular Advanced Scientific Camera Control software (Digital Optics Limited).

The subject of a further experiment is liver mitochondria. In words: Citrate synthase activity and Oroboros analysis of liver mitochondria flux. Format: in vivo, mice. To be noted: for increase in citrate synthase activity (CSA) vs veh: 50 mg/kg, 11 weeks. An excerpt:
A second cohort of mice was set up to confirm the effect of 11U3-2M on mitochondria and fatty acid (FA) β-oxidation using Oroboros analysis in the HFD but also in LFD models. Male C57BL/6J diet-induced obesity (C57BL/6J DIO, #380050) and male C57BL/6J diet-induced obesity control mice (C57BL/6J DIO Control, #380056) were purchased from Jackson Laboratory (Bar Harbor, ME, USA) at 15 weeks of age. Mice were continuously feeding either HFD or LFD during transport and upon reception. Mice were fed for 4 more weeks before starting the treatment. While continuing the HFD (n=8 per group) or LFD (n=8 per group), mice were treated with the same formulation as the first cohort using only 11U3-2M (50 mg/kg) or veh for 11 weeks. Mice were fasted for 5 h and received a single intraperitoneal injection of 50 μl of D31-palmitic acid (Cambridge Isotope, 3 μM, #dlm-215-1) in PEG400/Saline (2:1) and 1.5% of octanoic acid solution 2h before sacrifice in order to study FA metabolism. Blood and tissues were harvested and stored as described above.

The subject of another experiment is ACC. In words: Thermal shift assay of liver proteins, ACC. The class given is binding, mice. As for the experimental part: The liver samples (50 mg) were homogenized and vortexed in ice-cold RIPA buffer containing phosphatase (Fisher Scientific, #PIA32957) and protease (Fisher Scientific, #PIA32953) inhibitor cocktails. Protein concentration was determined using a […] (Pierce). Protein lysates were mixed with LDS Sample Buffer (1:4) and heated for 2 min at 95° C. The lysates were then loaded and electrophoresed on a 10% Tris-Glycine eXtended (BioRad, Criterion #5671034). The proteins were electrophoretically transferred to a PVDF membrane (BioRad, #1620177), and the transfer was confirmed by staining the membrane with 0.1% Ponceau S solution (Sigma-Aldrich, #6226-79-5). The membrane was then blocked for 90 min at RT with 5% nonfat dry milk (LabScientific) or 5% BSA (MilliporeSigma) in TBS-T (tris buffered saline+0.1% Tween 20 [Thermo Fisher Scientific]). […] Quantitative densitometric analysis was performed using Image Lab software (Bio-Rad).
Thermal Shift Assay Proteins were extracted from the liver powder (50 mg) with 1 mL of phosphate-buffered saline (PBS—Gibco, Paisley, UK) containing phosphatase (Fisher Scientific, #PIA32957) and protease (Fisher Scientific, #PIA32953) inhibitors. […] The Supernatants were transferred to new tubes and analyzed by western blot as described above.

As to `CCCc1ccc(CCCCCCCCCC(C)(C)C(=O)O)o1` [11U3-2M, 2,2-Dimethyl-11-(5-propylfuran-2-yl)undecanoic acid], the “activated pathways (Ingenuity Pathway Analysis)” value in the experiment on liver gene expression (liver RNA-Seq DEGs vs HFD+veh) is “FA β-oxidation was the most activated pathway”. Further, in the experiment with liver gene expression (liver RNA-Seq vs HFD+veh), the “LncRNA GM10804 downregulated” value amounted to 5 fold, the “LncRNA GM15441 increased” value was determined as 137 fold and the “increase in PDK4 gene” value worked out at 7 fold. Besides, the “GM15441 in-situ hybridization signal” value in the experiment with LncRNA GM15441 was “only detected in the nucleus of cells from 11U3-2M treated livers”. Besides, in the experiment on liver mitochondria (HFD mice), the “increase of flux after addition of glutamate, ratio to CSA, vs veh” value turned out to be 34%; the “increase of flux normalized to CSA vs veh” value is 38.3%; the “increase in citrate synthase activity (CSA) vs veh” value came out at 29%. Moreover, the “flux after addition of succinate (maximum respiration), normalized by CSA” value in the experiment with liver mitochondria (LFD and HFD mice) was “didn't show any significant difference”. Further, in the experiment with liver mitochondria (LFD mice), the “increase of flux after addition of glutamate, ratio to CSA, vs veh” value turned out to be 23%; the “increase of flux normalized to CSA vs veh” value worked out at 32.5%; the “increase in citrate synthase activity (CSA) vs veh” value is on record as 27%. Also, the “flux with pyruvate as the substrate” value with liver mitochondria (normalized to CSA) is recorded as “No significant change”. Further, in the experiment on liver mitochondria (substrates palmitoylcarnitine and pyruvate), the “mitochondria flux (Oroboros), not normalized” value was “significantly higher flux”. In addition, the ACC thermal stability entry in the experiment on ACC (full cohorts, HFD+11U3-2M, higher temperature (52, 53.5, 55° C.)) was “greatly increased”. Besides, the “ACC thermal stability compared to veh” value in the experiment with ACC (one mouse per group, 52, 53.5 and 55° C.) was “higher stability”.
